Results: US20200316208A1, “MECHANICAL PROCESSING OF BIOPOLYMERS” (SolyPlus Berlin GmbH, priority 2017, published 2020)

System: skin
Details: application to skin; 0.3% (m/m) histamine dihydrochloride solution used

Cl.Cl.NCCc1c[nH]cn1 [histamine solution droplet, Histamine dihydrochloride]
skin reaction (swelling, reddening, itchy feeling): No effect
